Drawing on US20160166540A1, “MODULATORS FOR ATP-BINDING CASSETTE TRANSPORTERS” (VERTEX PHARMACEUTICALS INCORPORATED, priority 2011, published 2016), this text covers Emax for 1 compound.

A value given as a limit tells only on which side of the number the result lay.

This assay has as its target T1, ΔF508-CFTR (Homo sapiens, UniProt P13569, DEL508-508).
T1 construct: expressed in transfected cells
Nature of the assay: Membrane potential optical assay for ΔF508-CFTR correction (identification of correction compounds). The class given is cell-based. As to conditions: NIH3T3; NIH 3T3 cells stably expressing ΔF508-CFTR; read-out: % Efficacy. An excerpt:
Assays for Detecting and Measuring M508-CFTR Correction Properties of Compounds
Membrane potential optical methods for assaying ΔF508-CFTR modulation properties of compounds.
The assay utilizes fluorescent voltage sensing dyes to measure changes in membrane potential using a fluorescent plate reader (e.g., FLIPR III, Molecular Devices, Inc.) as a readout for increase in functional ΔF508-CFTR in NIH 3T3 cells. The driving force for the response is the creation of a chloride ion gradient in conjunction with channel activation by a single liquid addition step after the cells have previously been treated with compounds and subsequently loaded with a voltage sensing dye.
To identify small molecules that correct the trafficking defect associated with ˜F508-CFTR; a single-addition HTS assay format was developed. Assay Plates containing cells are incubated for ˜2-4 hours in tissue culture incubator at 37° C., S % CO2, 90% humidity. Cells are then ready for compound exposure after adhering to the bottom of the assay plates.
The cells were incubated in serum-free medium for 16-24 hrs in tissue culture incubator at 37° C., S % CO2, 90% humidity in the presence or absence (negative control) of test compound. […] The addition of Cl^−-free medium promoted Cl^− efflux in response to ΔF508-CFTR activation and the resulting membrane depolarization was optically monitored using voltage sensor dyes. […]

T1 sequence (P13569 with tags, fused parts or gaps DEL508-508): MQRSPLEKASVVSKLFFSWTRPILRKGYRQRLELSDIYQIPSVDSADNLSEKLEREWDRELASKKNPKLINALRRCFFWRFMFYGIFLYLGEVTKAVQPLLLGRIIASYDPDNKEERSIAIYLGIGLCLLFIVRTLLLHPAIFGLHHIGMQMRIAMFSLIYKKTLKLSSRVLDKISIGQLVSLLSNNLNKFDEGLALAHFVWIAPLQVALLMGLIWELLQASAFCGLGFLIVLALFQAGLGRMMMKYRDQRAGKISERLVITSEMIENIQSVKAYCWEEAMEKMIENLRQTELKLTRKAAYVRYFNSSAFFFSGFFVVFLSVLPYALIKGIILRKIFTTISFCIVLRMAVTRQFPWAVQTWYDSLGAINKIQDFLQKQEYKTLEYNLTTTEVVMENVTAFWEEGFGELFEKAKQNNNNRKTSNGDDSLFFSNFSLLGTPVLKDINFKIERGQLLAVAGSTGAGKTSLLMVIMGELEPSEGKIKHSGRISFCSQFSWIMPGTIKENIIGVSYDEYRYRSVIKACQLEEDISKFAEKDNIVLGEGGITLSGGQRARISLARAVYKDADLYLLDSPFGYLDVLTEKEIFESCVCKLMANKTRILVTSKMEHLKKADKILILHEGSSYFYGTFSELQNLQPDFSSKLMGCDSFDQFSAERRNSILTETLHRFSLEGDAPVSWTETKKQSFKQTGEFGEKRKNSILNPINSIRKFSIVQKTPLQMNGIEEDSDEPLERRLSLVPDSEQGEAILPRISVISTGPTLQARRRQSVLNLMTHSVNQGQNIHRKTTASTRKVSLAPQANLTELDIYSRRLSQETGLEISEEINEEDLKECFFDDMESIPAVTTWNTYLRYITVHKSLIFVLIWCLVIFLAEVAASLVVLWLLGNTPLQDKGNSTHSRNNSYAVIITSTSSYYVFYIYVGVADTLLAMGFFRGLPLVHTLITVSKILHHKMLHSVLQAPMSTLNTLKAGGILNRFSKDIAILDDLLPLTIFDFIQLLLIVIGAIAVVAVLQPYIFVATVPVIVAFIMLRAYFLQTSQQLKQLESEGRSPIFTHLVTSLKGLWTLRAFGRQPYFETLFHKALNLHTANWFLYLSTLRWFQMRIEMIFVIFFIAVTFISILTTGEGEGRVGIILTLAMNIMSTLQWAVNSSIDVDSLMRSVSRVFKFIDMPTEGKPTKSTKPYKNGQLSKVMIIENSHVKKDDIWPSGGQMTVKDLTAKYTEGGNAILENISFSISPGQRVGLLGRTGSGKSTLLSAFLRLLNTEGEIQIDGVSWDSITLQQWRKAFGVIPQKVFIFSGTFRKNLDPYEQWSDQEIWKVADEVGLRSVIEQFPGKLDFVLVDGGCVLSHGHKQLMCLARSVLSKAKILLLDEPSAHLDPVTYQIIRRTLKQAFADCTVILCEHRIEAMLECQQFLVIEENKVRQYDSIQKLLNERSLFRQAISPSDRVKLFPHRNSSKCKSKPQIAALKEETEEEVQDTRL

As to `CC1(C)c2cc3cc(NC(=O)C4(c5ccc6c(c5)OC(F)(F)O6)CC4)c(F)cc3n2C[C@H](CO)OC1O` (stereo partly drawn) [1-(2,2-difluorobenzo[d][1,3]dioxol-5-yl)-N-((4R)-8-fluoro-2-hydroxy-4-(hydroxymethyl)-1,1-dimethyl-1,2,4,5-tetrahydro-[1,4]oxazepino[4,5-a]indol-9-yl)cyclopropanecarboxamide], the Emax was greater than 100%.
